Positions of bridges follow the written chain, without caps; N, C: chain ends. Residues, ends and D or L forms follow the SMILES beside them. No end group written: not given here.
Experiments:
[1] = target: T1, α5β1 integrin (Homo sapiens, UniProt P05556+P08648); assay: phage attachment assay: inhibition of CRGDCL-phage binding to α5β1 integrin; conditions: FIG. 1
T1 construct: The α5β1 and αvβ3 integrins were isolated from human placenta; from tissue; host or cells: human placenta
Experimental: (§1) The α5β1 and αvβ3 integrins were isolated from human placenta as described in Pytela et al., PNAS USA.
CRGDCL-displaying phage were incubated for 1 hour in the presence of various concentrations of the peptides to be tested in microtiter wells coated with the α5β1 integrin. […] Specific binding was quantitated by added K9lkan bacteria directly to the wells and growing the bacteria overnight at room temperature in the presence of tetracycline as described in Smith and Scott, Meth. Enzymol. […] The data represent means from duplicate wells.

[2] = target: T1, α5β1 integrin; assay: inhibition of ELRGDGW-containing phage binding to α5β1 integrin; conditions: 1 hour at room temperature
Experimental: Phage carrying the insert ELRGDGW (SEQ ID NO 24) were added together with various concentrations of the cyclic peptide […] (SEQ ID NO:03) into microliter wells coated with the α5β1 integrin and incubated for 1 hour at room temperature. The 15 phage which remained bound to the wells were quantitated by growing the K9lkan bacteria in the wells overnight at room temperature in the presence of tetracycline. The absorbance that indicates the growth of bacteria infected with phage was measured at 600 nm with an ELISA reader.

[3] = target: T2, αvβ3 integrin (Homo sapiens, UniProt P05106+P06756); assay: inhibition of CRGDCL-phage binding to αvβ3; conditions: means from duplicate wells
T2 construct: The α5β1 and αvβ3 integrins were isolated from human placenta; from tissue; host or cells: human placenta
Excerpt: as §1
(§2) Selected peptides were studied for their ability to bind to the αvβ3 integrin by using integrin bound on anti-αv or anti-β3 antibody coating. Microliter wells were coated with β3 antibodies to bind specifically the αvβ3 integrin. […] The bound phage were eluted with low pH buffer and quantitated by infection of bacteria as described above. The IC50 values are means from duplicate wells. ND means not determined.

[4] = target: T3, α5β1 (UniProt G3HZ55+P08648); assay: cell attachment assay: α5-transfected CHO cells B2/α27 to fibronectin; assay type: cell-based; conditions: FIG. 4A, read-out: IC50, inhibition of α5β1-mediated cell attachment to fibronectin
T3 construct: expressed in transfected cells; host or cells: CHO B2/α27 clone
Excerpt: (§3) CHO cell lines expressing α5β1 (the B2/α27 clone, as described in Bauer et al., J. Cell. Biol. 116:477-487 (1992)), or CHO cell lines expressing αvβ1 (B2/v7 clone, described in Zhang et al., J. Cell. Biol. 122:235-242 (1993)) were used in these assays. Cell lines expressing fibronectin-binding integrins were used to determine peptide activities against these integrins in the cell attachment assay described in Ruoslahti et al. Methods Enzymol. 144:803-831 […]. The vitronectin-binding integrins αvβ5 and αvβ3 were assayed using the cell lines HT29 and IMR90, respectively, which were described in Koivunen et al. J. Biol. Chem. 268:205-210 (1993).
(§4) Human plasma fibronectin and vitronectin were iodinated as described in Morla and Ruoslahti, J. Cell Biol. 118:421-429 (1992), which is incorporated herein by reference. […] The input ell number was approximately 2×10^4 and attachment was quantitated by staining with 0.1% amido black.
(§5) Selected peptides were tested for inhibitory activity in cell attachment assays. The assays are described in detail in the Example above. The cells used in the various experiments were: (A) α5 -transfected CHO cells B2/α27 (α5β1); αv -transfectedCHO cells 32/v7 (αvβ1); (C) HT29 cells (αvβ5); (D) IMR90 cells (αvβ3). […]

[5] = target: T2, αvβ3 integrin; assay: inhibition of NGRAHA-phage binding to αvβ3; conditions: means from duplicate wells
Excerpt: as §1, §2

[6] = system: α5β1 and αvβ3 integrins; assay: competitive binding assays for relative binding affinities of peptide motifs; parameters: species or system human; conditions: for relative binding affinity class (in words): competitive binding assays
[7] = target: T1, α5β1 integrin; assay: fibronectin binding assay: inhibition of 125I-labeled fibronectin binding to immobilized α5β1; conditions: FIG. 2, FIG. 3
Experimental: Microtiter wells were coated with anti-α5 specific antibody by incubating overnight at an antibody concentration of 10 μg/ml, followed by BSA. α5β1 integrin then was bound to α5specific antibody-coated wells by incubating 300 μl of a placental extract per well in TBS buffer containing 0.1 M octylglucoside, 1 mM CaCl2, 1 mM MnCl2 and proteinase inhibitors overnight at 4° C. according to Pytela et al., Methods Enzymol 144: 475-489 (1987), which is herein incorporated by reference. Alternatively, the α5β1 integrin was directly coated on plastic as described above. The wells were extensively washed with TBS containing 0.1% NP-40™. ^125 I-labeled fibronectin (100,000 cpm per well) was incubated in the presence of competing peptides for 1 hour at 25° C. in 100 μl volume of TBS containing 0.1% NP-40™ detergent and 1 mM MnCl 2. After repeated washing, the radioactivity remaining bound was quantitated with a gamma counter.
Next, three of these four peptides were compared for efficiencies in inhibiting binding of ^125 I-labeled fibronectin to immobilized α5β1, according to the fibronectin binding assay described in the Example above. Anti-α5 antibodies were used to tether α5β1 onto microliter wells. ^125 I-labeled fibronectin was incubated in the coated wells in the presence of competing peptides for 1 hour. After washing, the radioactivity that remained bound was determined. The data represent means from duplicate wells.

[8] = target: T2, αvβ3 integrin; assay: binding of peptides to αvβ3 integrin bound on anti-αv or anti-β3 antibody coating
Excerpt: Selected peptides were studied for their ability to bind to the αvβ3 integrin by using integrin bound on anti-αv or anti-β3 antibody coating. Microliter wells were coated with β3 antibodies to bind specifically the αvβ3 integrin. The input of CRGDCL (SEQ ID NO:01)-containing phage and NGRAHA (SEQ ID NO:04)-containing phage were 2×10^12 and 5×10^12 TU per well, respectively. The bound phage were eluted with low pH buffer and quantitated by infection of bacteria as described above. The IC50 values are means from duplicate wells. ND means not determined.

[9] = target: T4, αvβ5 (Homo sapiens, UniProt P06756+P18084); assay: cell attachment assay: HT29 cells to vitronectin; assay type: cell-based
T4 construct: endogenous in cells; host or cells: HT29
Excerpt: as §3, §4, §5

T1 sequence (P08648 42-894 limits assumed): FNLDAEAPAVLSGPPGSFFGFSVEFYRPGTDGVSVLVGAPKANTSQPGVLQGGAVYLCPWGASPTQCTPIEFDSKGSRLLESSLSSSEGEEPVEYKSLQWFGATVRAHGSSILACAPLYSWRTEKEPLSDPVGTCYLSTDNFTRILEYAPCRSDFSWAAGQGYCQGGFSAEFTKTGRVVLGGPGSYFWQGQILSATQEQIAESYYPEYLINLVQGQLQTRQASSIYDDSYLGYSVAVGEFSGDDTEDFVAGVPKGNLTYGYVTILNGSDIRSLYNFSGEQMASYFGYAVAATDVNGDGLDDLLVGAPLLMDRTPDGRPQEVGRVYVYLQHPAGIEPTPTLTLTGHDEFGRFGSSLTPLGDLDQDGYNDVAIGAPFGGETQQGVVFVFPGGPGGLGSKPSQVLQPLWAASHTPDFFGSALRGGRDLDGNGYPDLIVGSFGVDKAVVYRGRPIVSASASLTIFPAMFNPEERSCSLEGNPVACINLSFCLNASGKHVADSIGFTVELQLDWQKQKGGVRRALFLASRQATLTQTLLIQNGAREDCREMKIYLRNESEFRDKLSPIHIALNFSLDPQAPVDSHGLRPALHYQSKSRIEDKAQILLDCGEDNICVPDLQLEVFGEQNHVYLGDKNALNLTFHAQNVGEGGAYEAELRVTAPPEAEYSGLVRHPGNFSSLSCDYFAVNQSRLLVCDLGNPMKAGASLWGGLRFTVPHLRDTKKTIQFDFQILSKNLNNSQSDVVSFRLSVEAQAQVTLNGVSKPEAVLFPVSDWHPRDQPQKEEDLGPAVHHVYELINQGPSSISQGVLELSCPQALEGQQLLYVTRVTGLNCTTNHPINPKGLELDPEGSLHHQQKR
T1 sequence (P08648 895-1049 limits assumed): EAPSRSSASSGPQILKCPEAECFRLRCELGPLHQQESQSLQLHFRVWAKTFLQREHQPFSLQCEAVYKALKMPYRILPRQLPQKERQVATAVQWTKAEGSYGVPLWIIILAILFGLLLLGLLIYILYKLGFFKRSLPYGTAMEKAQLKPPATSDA
T1 sequence (P05556 21-798): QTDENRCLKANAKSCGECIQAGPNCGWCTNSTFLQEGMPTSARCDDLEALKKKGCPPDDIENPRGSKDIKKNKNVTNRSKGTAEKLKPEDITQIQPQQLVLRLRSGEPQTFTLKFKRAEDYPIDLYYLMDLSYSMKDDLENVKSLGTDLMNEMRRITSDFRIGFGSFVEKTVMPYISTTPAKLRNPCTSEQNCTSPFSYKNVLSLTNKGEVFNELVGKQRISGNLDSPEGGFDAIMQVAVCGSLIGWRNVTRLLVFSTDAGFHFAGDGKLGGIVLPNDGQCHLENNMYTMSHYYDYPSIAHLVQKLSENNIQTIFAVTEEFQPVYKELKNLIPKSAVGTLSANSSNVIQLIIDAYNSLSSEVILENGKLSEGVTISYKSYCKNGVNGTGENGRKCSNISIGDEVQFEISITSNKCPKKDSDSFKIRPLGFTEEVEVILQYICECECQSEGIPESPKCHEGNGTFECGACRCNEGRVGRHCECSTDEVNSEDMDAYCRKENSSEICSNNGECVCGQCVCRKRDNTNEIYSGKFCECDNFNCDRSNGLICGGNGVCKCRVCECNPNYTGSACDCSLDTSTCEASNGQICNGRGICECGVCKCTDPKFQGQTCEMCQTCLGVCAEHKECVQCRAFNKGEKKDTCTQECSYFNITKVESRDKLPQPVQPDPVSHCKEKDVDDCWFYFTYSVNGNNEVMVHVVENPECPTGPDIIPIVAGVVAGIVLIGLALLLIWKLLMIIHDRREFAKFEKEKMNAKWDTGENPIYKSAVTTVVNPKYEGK
T2 sequence (P06756 31-889 limits assumed): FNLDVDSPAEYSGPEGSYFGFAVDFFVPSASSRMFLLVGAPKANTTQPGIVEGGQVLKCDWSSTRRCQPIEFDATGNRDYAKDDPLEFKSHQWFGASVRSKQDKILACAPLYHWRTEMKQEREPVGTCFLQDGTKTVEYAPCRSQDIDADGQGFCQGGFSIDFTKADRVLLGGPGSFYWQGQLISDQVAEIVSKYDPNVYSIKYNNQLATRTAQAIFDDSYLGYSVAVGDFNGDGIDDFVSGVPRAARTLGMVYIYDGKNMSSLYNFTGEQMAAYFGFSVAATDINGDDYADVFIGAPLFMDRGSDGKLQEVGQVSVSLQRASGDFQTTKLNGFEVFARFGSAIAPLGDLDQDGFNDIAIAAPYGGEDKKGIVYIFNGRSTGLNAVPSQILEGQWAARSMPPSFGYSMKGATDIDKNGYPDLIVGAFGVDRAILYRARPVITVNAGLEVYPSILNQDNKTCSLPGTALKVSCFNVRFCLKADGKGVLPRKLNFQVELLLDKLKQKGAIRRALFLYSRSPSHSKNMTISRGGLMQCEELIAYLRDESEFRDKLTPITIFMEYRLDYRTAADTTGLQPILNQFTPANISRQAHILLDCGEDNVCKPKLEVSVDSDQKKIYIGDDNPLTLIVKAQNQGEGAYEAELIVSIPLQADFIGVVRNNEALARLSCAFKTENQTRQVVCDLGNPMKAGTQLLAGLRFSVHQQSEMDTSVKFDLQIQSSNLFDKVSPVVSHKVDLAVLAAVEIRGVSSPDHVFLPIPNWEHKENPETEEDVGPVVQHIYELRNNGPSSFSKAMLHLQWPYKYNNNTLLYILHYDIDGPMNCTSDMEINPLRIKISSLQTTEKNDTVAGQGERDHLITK
T2 sequence (P06756 891-1048 limits assumed): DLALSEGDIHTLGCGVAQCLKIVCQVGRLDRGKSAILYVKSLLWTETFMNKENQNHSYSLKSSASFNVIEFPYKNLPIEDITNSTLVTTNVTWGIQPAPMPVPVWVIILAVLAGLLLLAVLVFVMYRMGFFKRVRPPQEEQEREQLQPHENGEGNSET
T2 sequence (P05106 27-788): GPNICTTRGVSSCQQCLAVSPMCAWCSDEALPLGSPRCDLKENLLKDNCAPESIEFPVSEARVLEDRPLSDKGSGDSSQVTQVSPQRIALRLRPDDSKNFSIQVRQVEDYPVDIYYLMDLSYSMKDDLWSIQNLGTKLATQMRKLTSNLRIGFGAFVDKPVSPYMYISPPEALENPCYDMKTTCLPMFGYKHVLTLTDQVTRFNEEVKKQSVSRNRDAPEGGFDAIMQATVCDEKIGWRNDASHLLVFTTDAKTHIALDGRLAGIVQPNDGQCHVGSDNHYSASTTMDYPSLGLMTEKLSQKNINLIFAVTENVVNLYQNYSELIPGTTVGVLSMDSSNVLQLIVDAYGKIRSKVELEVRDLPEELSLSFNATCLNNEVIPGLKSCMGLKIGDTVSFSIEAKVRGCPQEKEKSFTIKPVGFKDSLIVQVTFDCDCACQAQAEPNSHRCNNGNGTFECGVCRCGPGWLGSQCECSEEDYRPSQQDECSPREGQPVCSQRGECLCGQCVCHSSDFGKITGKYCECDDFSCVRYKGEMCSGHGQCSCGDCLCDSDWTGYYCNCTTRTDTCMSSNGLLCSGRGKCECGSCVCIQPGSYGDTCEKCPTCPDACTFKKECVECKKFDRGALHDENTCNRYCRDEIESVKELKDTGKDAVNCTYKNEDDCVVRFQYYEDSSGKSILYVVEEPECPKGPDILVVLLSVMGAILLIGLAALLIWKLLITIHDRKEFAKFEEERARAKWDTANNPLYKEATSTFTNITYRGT
T3 sequence (P08648 42-894 limits assumed): as the sequence (P08648 42-894 limits assumed) above
T3 sequence (P08648 895-1049 limits assumed): as the sequence (P08648 895-1049 limits assumed) above
T3 sequence (G3HZ55 21-798): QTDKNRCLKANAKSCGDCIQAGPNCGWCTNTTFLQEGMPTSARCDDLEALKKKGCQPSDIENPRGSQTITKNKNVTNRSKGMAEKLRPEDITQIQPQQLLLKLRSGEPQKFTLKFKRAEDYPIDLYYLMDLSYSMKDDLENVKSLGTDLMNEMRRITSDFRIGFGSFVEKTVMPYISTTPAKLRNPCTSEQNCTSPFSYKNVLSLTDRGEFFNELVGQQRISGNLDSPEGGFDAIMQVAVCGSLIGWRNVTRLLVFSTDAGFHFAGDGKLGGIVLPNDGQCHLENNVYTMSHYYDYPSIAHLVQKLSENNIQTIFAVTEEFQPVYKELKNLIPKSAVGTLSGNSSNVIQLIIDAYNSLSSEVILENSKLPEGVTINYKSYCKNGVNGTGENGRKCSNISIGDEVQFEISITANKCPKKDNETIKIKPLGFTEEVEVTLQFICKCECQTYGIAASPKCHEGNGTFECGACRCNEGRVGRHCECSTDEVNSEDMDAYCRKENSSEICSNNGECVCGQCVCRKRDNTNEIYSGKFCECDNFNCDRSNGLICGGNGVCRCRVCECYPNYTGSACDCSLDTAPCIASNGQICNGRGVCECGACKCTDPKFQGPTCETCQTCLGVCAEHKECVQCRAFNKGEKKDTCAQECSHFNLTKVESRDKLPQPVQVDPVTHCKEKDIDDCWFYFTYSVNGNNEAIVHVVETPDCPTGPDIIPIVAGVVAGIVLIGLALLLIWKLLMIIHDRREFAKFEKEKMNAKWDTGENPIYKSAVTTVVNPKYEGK

| Compound | IC50 [3] [µM] | IC50 [5] [µM] | relative binding affinity class (in words) [6] | activity in inhibiting 125I-fibronectin binding to α5β1 (in words) [7] | also measured |
| --- | --- | --- | --- | --- | --- |
| CC(C)C[C@H](NC(=O)[C@@H]1CSSC[C@H](NC(=O)[C@H](C)NC(=O)CN)C(=O)N[C@@H](CCCNC(=N)N)C(=O)NCC(=O)N[C@@H](CC(=O)O)C(=O)N1)C(=O)NCC(=O)N[C@@H](C)C(=O)O [GAC*RGDC*LGA] (H-GACRGDCLGA-OH; disulfide 3-7) | 0.1 |  |  |  | IC50 ([1]; 1 hour, means from duplicate wells, read-out: IC50 (half-maximal inhibitory concentration), inhibition of CRGDCL-phage binding to α5β1): 0.02 µM; IC50 [2]: ~0.5 µM; IC50 [4]: 100 µM |
| N=C(N)NCCC[C@H](NC(=O)CNC(=O)[C@H](CC(=O)O)NC(=O)[C@@H](N)CO)C(=O)O [SDGR, reference compound] (H-SDGR-OH) |  | > 100 |  |  |  |
| CRGDC (disulfide 1-5 (inferred)) [cyclic peptide motif] |  |  | High affinity |  |  |
| CRGDCL (disulfide 1-5 (inferred)) |  |  | High affinity | very effective | binding to αvβ3 (in words) [8]: bound; binding affinity compared with similar linear peptides, as judged by the IC50 value ([6]; both α5β1 and αvβ3 integrins): about 10 times |
| CVLNGRME |  |  | moderate affinities |  |  |
| DGRAHA [DGRAHA] |  | 100 |  |  | IC50 against αvβ5 compared with the standard GRGDSP [9]: equal to the standard GRGDSP |
| GATIRSVDGA | ~100 |  |  |  |  |
| NGRAHA [NGRAHA] | 200 | 30 |  | active | IC50 ([1]; CRGDCL-phage, α5β1, read-out: IC50 in the phage assay (unit inferred)): 30 µM |
| SDGRAHS (SDGRAHA) [DGRAHA with a serine residue included at the amino terminus] |  |  |  | essentially devoid of activity |  |
| SRRGDL [RGD peptide] |  |  |  |  | binding to αvβ3 (in words) [8]: bound |
